Reference: ChEMBL document CHEMBL1201862, “PubChem BioAssay data set” (2004)
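Each compound was tested at five concentrations against cells in 96-well plates for 48 hours. Abbreviation: GI50, concentration required for 50% inhibition of growth.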 Active and inactive are the calls of the source. No stated cut-off is given here; in the data, active = GI50 up to about 1.1 µM and inactive = higher.

Columns and labels:
Assay in all cases: NCI-60 cell line screen, 48 h
OVCAR-4 = system: OVCAR-4
EKVX = system: EKVX
NCI-H23 = system: NCI-H23
MDA-N = system: MDA-N
U-251 = system: U-251
SK-MEL-28 = system: SK-MEL-28
SK-OV-3 = system: SK-OV-3
786-0 = system: 786-0
SK-MEL-5 = system: SK-MEL-5
MDA-MB-435 = system: MDA-MB-435
HT-29 = system: HT-29
HL-60 = system: HL-60
PC-3 = system: PC-3
ACHN = system: ACHN
A498 = system: A498
CCRF-CEM = system: CCRF-CEM
SNB-19 = system: SNB-19
A549 = system: A549
T47D = system: T47D
M14 = system: M14

SMILES: COc1ccc(-c2cc(-c3ccc(Nc4ccnc5cc(C(F)(F)F)ccc45)cc3)[nH]c(=O)c2C#N)c2ccccc12
- GI50 (OVCAR-4): > 46 µM (inactive)
- GI50 (EKVX): > 100 µM (inactive)
- GI50 (NCI-H23): 39.5 µM (inactive)
- GI50 (MDA-N): > 38.4 µM (inactive)
- GI50 (U-251): 10.2 µM (inactive)
- GI50 (SK-MEL-28): > 59.7 µM (inactive)
- GI50 (SK-OV-3): 10.2 µM (inactive)
- GI50 (786-0): 21 µM (inactive)
- GI50 (SK-MEL-5): > 100 µM (inactive)
- GI50 (MDA-MB-435): > 33.7 µM (inactive)
- GI50 (HT-29): > 25.7 µM (inactive)
- GI50 (HL-60): > 100 µM (inactive)
- GI50 (PC-3): > 100 µM (inactive)
- GI50 (ACHN): > 32.5 µM (inactive)
- GI50 (A498): > 43 µM (inactive)
- GI50 (CCRF-CEM): > 20.9 µM (inactive)
- GI50 (SNB-19): 18.8 µM (inactive)
- GI50 (A549): > 100 µM (inactive)
- GI50 (T47D): > 34 µM (inactive)
- GI50 (M14): > 42.7 µM (inactive)

SMILES: CC(=N\N=C\c1ccccn1)/C(C)=N/N=C(C)/C(C)=N/N=C(C)/C(C)=N/N=C/c1ccccn1
- GI50 (OVCAR-4): > 100 µM (inactive)
- GI50 (EKVX): > 100 µM (inactive)
- GI50 (NCI-H23): > 100 µM (inactive)
- GI50 (MDA-N): > 100 µM (inactive)
- GI50 (U-251): > 100 µM (inactive)
- GI50 (SK-MEL-28): > 100 µM (inactive)
- GI50 (SK-OV-3): > 100 µM (inactive)
- GI50 (786-0): > 100 µM (inactive)
- GI50 (SK-MEL-5): > 100 µM (inactive)
- GI50 (MDA-MB-435): > 100 µM (inactive)
- GI50 (HT-29): > 100 µM (inactive)
- GI50 (HL-60): > 100 µM (inactive)
- GI50 (PC-3): > 100 µM (inactive)
- GI50 (ACHN): > 100 µM (inactive)
- GI50 (A498): > 100 µM (inactive)
- GI50 (CCRF-CEM): 3.7 µM (inactive)
- GI50 (SNB-19): > 100 µM (inactive)
- GI50 (A549): > 100 µM (inactive)
- GI50 (T47D): > 100 µM (inactive)
- GI50 (M14): > 100 µM (inactive)

SMILES: CC1(C)C(=O)/C(=C/c2ccccc2)C(C)(C)C1(C)C
- GI50 (OVCAR-4): > 75.3 µM (inactive)
- GI50 (EKVX): > 58.5 µM (inactive)
- GI50 (NCI-H23): 70.6 µM (inactive)
- GI50 (MDA-N): 39.1 µM (inactive)
- GI50 (U-251): 55.5 µM (inactive)
- GI50 (SK-MEL-28): > 100 µM (inactive)
- GI50 (SK-OV-3): > 55.5 µM (inactive)
- GI50 (786-0): > 81.8 µM (inactive)
- GI50 (SK-MEL-5): 55 µM (inactive)
- GI50 (MDA-MB-435): 29.4 µM (inactive)
- GI50 (HT-29): 40.1 µM (inactive)
- GI50 (HL-60): 18.9 µM (inactive)
- GI50 (PC-3): 53.7 µM (inactive)
- GI50 (ACHN): 53.3 µM (inactive)
- GI50 (A498): 36.1 µM (inactive)
- GI50 (CCRF-CEM): 28.4 µM (inactive)
- GI50 (SNB-19): > 100 µM (inactive)
- GI50 (A549): 57.5 µM (inactive)
- GI50 (T47D): > 65.3 µM (inactive)
- GI50 (M14): 85.1 µM (inactive)

SMILES: CC(C)C1=Cc2ccc3c(c2C(=O)C1=O)CCCC3
- GI50 (OVCAR-4): 1.51 µM (inactive)
- GI50 (EKVX): 9.14 µM (inactive)
- GI50 (NCI-H23): 9.42 µM (inactive)
- GI50 (MDA-N): 6.61 µM (inactive)
- GI50 (U-251): 19.1 µM (inactive)
- GI50 (SK-MEL-28): 7.5 µM (inactive)
- GI50 (SK-OV-3): 2.92 µM (inactive)
- GI50 (786-0): 2.43 µM (inactive)
- GI50 (SK-MEL-5): 7.1 µM (inactive)
- GI50 (MDA-MB-435): 0.865 µM (active)
- GI50 (HT-29): 9.06 µM (inactive)
- GI50 (HL-60): 1.01 µM (active)
- GI50 (PC-3): 13.8 µM (inactive)
- GI50 (ACHN): 3.49 µM (inactive)
- GI50 (A498): 13.1 µM (inactive)
- GI50 (CCRF-CEM): 0.65 µM (active)
- GI50 (SNB-19): 17.9 µM (inactive)
- GI50 (A549): 5.96 µM (inactive)
- GI50 (T47D): 0.227 µM (active)
- GI50 (M14): 5.11 µM (inactive)

SMILES: O=C(NCP(=O)(c1ccccc1)c1ccccc1)OCc1ccccc1
- GI50 (OVCAR-4): 43.5 µM (inactive)
- GI50 (EKVX): > 100 µM (inactive)
- GI50 (NCI-H23): > 100 µM (inactive)
- GI50 (MDA-N): > 100 µM (inactive)
- GI50 (U-251): 84.5 µM (inactive)
- GI50 (SK-MEL-28): > 100 µM (inactive)
- GI50 (SK-OV-3): 67.3 µM (inactive)
- GI50 (786-0): 37.2 µM (inactive)
- GI50 (SK-MEL-5): > 100 µM (inactive)
- GI50 (MDA-MB-435): > 100 µM (inactive)
- GI50 (HT-29): > 100 µM (inactive)
- GI50 (HL-60): > 100 µM (inactive)
- GI50 (PC-3): 64.3 µM (inactive)
- GI50 (ACHN): > 100 µM (inactive)
- GI50 (A498): > 100 µM (inactive)
- GI50 (CCRF-CEM): > 100 µM (inactive)
- GI50 (SNB-19): > 100 µM (inactive)
- GI50 (A549): 66.8 µM (inactive)
- GI50 (T47D): > 100 µM (inactive)
- GI50 (M14): > 100 µM (inactive)

SMILES: CC1(C)CC2=C(Sc3ccccc3N2)C(=O)C1C(=O)C(=O)Nc1cc(Cl)ccc1Cl (stereo not given)
- GI50 (OVCAR-4): 30.1 µM (inactive)
- GI50 (EKVX): > 100 µM (inactive)
- GI50 (NCI-H23): > 100 µM (inactive)
- GI50 (MDA-N): > 100 µM (inactive)
- GI50 (U-251): > 100 µM (inactive)
- GI50 (SK-MEL-28): > 100 µM (inactive)
- GI50 (SK-OV-3): > 100 µM (inactive)
- GI50 (786-0): > 100 µM (inactive)
- GI50 (SK-MEL-5): 42.1 µM (inactive)
- GI50 (MDA-MB-435): > 100 µM (inactive)
- GI50 (HT-29): 77.6 µM (inactive)
- GI50 (HL-60): > 100 µM (inactive)
- GI50 (PC-3): 84.5 µM (inactive)
- GI50 (ACHN): > 100 µM (inactive)
- GI50 (A498): > 100 µM (inactive)
- GI50 (CCRF-CEM): > 100 µM (inactive)
- GI50 (SNB-19): > 100 µM (inactive)
- GI50 (A549): > 100 µM (inactive)
- GI50 (T47D): 82.8 µM (inactive)
- GI50 (M14): > 100 µM (inactive)

SMILES: CCOC(=O)/C=C1\Nc2ccccc2C12CCc1c([nH]c3ccccc13)C2C(=O)OCC (stereo not given)
- GI50 (OVCAR-4): 16.3 µM (inactive)
- GI50 (EKVX): 18.8 µM (inactive)
- GI50 (NCI-H23): 43.5 µM (inactive)
- GI50 (MDA-N): 7.85 µM (inactive)
- GI50 (U-251): > 100 µM (inactive)
- GI50 (SK-MEL-28): 61.2 µM (inactive)
- GI50 (SK-OV-3): 30.2 µM (inactive)
- GI50 (786-0): 57.8 µM (inactive)
- GI50 (SK-MEL-5): 21.8 µM (inactive)
- GI50 (MDA-MB-435): 6.27 µM (inactive)
- GI50 (HT-29): 9.08 µM (inactive)
- GI50 (HL-60): 26.1 µM (inactive)
- GI50 (PC-3): > 100 µM (inactive)
- GI50 (ACHN): 49.2 µM (inactive)
- GI50 (A498): 30.1 µM (inactive)
- GI50 (CCRF-CEM): 29 µM (inactive)
- GI50 (SNB-19): > 100 µM (inactive)
- GI50 (A549): 29.7 µM (inactive)
- GI50 (T47D): 61.2 µM (inactive)
- GI50 (M14): 25.2 µM (inactive)

SMILES: CN(C)/C=N/S(=O)(=O)c1nn2c(C=O)c(-c3ccc(-c4ccc([N+](=O)[O-])cc4)o3)nc2s1
- GI50 (OVCAR-4): 3.54 µM (inactive)
- GI50 (EKVX): 5.07 µM (inactive)
- GI50 (NCI-H23): 3.1 µM (inactive)
- GI50 (MDA-N): 1.1 µM (active)
- GI50 (U-251): 2.25 µM (inactive)
- GI50 (SK-MEL-28): 2.4 µM (inactive)
- GI50 (SK-OV-3): 36.1 µM (inactive)
- GI50 (786-0): 1.07 µM (active)
- GI50 (SK-MEL-5): 4.76 µM (inactive)
- GI50 (MDA-MB-435): 2.68 µM (inactive)
- GI50 (HT-29): 0.611 µM (active)
- GI50 (HL-60): 0.807 µM (active)
- GI50 (PC-3): 3.37 µM (inactive)
- GI50 (ACHN): 1.97 µM (inactive)
- GI50 (A498): 15.3 µM (inactive)
- GI50 (CCRF-CEM): 0.426 µM (active)
- GI50 (SNB-19): 13.9 µM (inactive)
- GI50 (A549): 3.62 µM (inactive)
- GI50 (T47D): 5.52 µM (inactive)
- GI50 (M14): 2.12 µM (inactive)

SMILES: OCC1OC(n2cnc3c(/C=C(/O)c4ccccc4)ncnc32)C(O)C1O (stereo not given)
- GI50 (OVCAR-4): 2.84 µM (inactive)
- GI50 (EKVX): 19.1 µM (inactive)
- GI50 (NCI-H23): 2.82 µM (inactive)
- GI50 (MDA-N): 4.89 µM (inactive)
- GI50 (U-251): 10.9 µM (inactive)
- GI50 (SK-MEL-28): 41.8 µM (inactive)
- GI50 (SK-OV-3): 0.428 µM (active)
- GI50 (786-0): 2.94 µM (inactive)
- GI50 (SK-MEL-5): 5.65 µM (inactive)
- GI50 (MDA-MB-435): 2.25 µM (inactive)
- GI50 (HT-29): 3.1 µM (inactive)
- GI50 (HL-60): 0.165 µM (active)
- GI50 (PC-3): 4.04 µM (inactive)
- GI50 (ACHN): 0.923 µM (active)
- GI50 (A498): 2.16 µM (inactive)
- GI50 (CCRF-CEM): 0.61 µM (active)
- GI50 (SNB-19): 12.4 µM (inactive)
- GI50 (A549): 1.29 µM (inactive)
- GI50 (T47D): 3.03 µM (inactive)
- GI50 (M14): 0.813 µM (active)

SMILES: NNC1=N/C(=C\c2ccco2)C(=O)N1
- GI50 (OVCAR-4): > 100 µM (inactive)
- GI50 (EKVX): > 100 µM (inactive)
- GI50 (NCI-H23): > 100 µM (inactive)
- GI50 (MDA-N): > 100 µM (inactive)
- GI50 (U-251): 91.8 µM (inactive)
- GI50 (SK-MEL-28): > 100 µM (inactive)
- GI50 (SK-OV-3): > 100 µM (inactive)
- GI50 (786-0): > 100 µM (inactive)
- GI50 (SK-MEL-5): > 100 µM (inactive)
- GI50 (MDA-MB-435): > 100 µM (inactive)
- GI50 (HT-29): > 100 µM (inactive)
- GI50 (HL-60): > 100 µM (inactive)
- GI50 (PC-3): 28.8 µM (inactive)
- GI50 (ACHN): 47.5 µM (inactive)
- GI50 (A498): > 100 µM (inactive)
- GI50 (CCRF-CEM): > 10 µM (inactive)
- GI50 (SNB-19): > 100 µM (inactive)
- GI50 (A549): 80.9 µM (inactive)
- GI50 (T47D): > 100 µM (inactive)
- GI50 (M14): > 100 µM (inactive)
